Measurements published in patent publication US20240150396A1 (The Texas A&M University System, priority 2021, published 2024).
Several values for one entry are separate records, joined by “and”; a condition that tells them apart may be missing. Identical values can stand only once. Like-named read-outs stand apart in the source and are kept apart here.

Key:
cruzain = cruzain (Trypanosoma cruzi, UniProt P25779); assay: biochemical
Method in brief: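 Fluorogenic assay at 25 °C following AMC release (ex 360/em 460 nm), with typically 0.2 nM cruzain and 10% DMSO, at pH 7.5 or 5.5 buffer with 5 mM DTT.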

human cathepsin L = human cathepsin L (Homo sapiens (Human), UniProt P07711); assay: Human cathepsin L inhibition, Z-FR-AMC assay; format: biochemical; conditions: for Ki: pH 5.5, 25° C.
Method in brief: (§1)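 Recombinant human enzymes were assayed at 25°C in sodium acetate pH 5.5 with 1 mM CHAPS, 1 mM EDTA, 5 mM DTT and 10% DMSO final, using the fluorogenic substrate Z-FR-AMC. AMC release (ex 360/em 460 nm) was followed over 30–60 min and converted to rates (μM/s) via an AMC standard curve.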

human cathepsin B = human cathepsin B (Homo sapiens (Human), UniProt P07858); assay: Human cathepsin B inhibition, Z-FR-AMC assay; format: biochemical; conditions: pH 5.5, 25° C.
Method in brief: as §1

human cathepsin S = human cathepsin S (Homo sapiens (Human), UniProt P25774); assay: Human cathepsin S inhibition; format: biochemical; conditions: pH 5.5, 25° C., 10% DMSO
Description: Cruzain inhibitors were added at seven concentrations and one fixed concentration of Cbz-Phe-Arg-AMC, and time courses of AMC formation were analyzed as with cruzain.

[1] = system: T. cruzi epimastigotes (strain Y); assay: Growth of axenic cultures of T. cruzi epimastigotes
[2] = system: T. b. brucei bloodstream forms; assay: Growth of axenic cultures of T. b. brucei bloodstream forms (BSFs)
Description: Selected cruzain inhibitors were evaluated in axenic cell cultures of T. b. brucei and T. cruzi. Procyclic trypomastigotes of T. b. brucei (ATCC PRA-381) were grown in the SDM-79 medium at 26° C., and bloodstream forms (ATCC PRA-383) were grown at 37° C. in the HMI-9 medium at 5% C02. […] Both forms of T. b. brucei and T. cruzi were grown in media containing 10% fetal bovine serum (FBS) and penicillin/streptomycin (50 U mL^−1). […] Control samples contained equal amounts of DMSO. T. b. brucei and T. cruzi (5 mL in flask cultures) were seeded at ˜3×10^6 cells and diluted daily, maintaining a mid-log growth phase for up to 120 h. […] After each cell dilution, fresh compound or an equal volume of DMSO (control samples) was supplemented into the cultures, while maintaining a constant concentration of each inhibitor. Cell counts were scored using a Z2 Coulter Counter.
In vitro Cell Assays. Bloodstream form T. b. brucei strain SM427 was grown in HM1-9 medium that included fetal bovine serum (10%) and antibiotics (100 U/mL penicillin-streptomycin, Gibco™). Inhibitors dissolved in 100% (v/v) DMSO stock solutions were added at final concentrations of 0.5-20 μM (final concentrations of DMSO were <1% (v/v)). T. b. brucei were seeded at ˜1×10^6 cells at 37° C., and diluted daily to maintain a log phase of growth for up to 96 h. […] After each dilution, the cell cultures were supplemented with inhibitor or DMSO (control) to keep concentrations constant. Cell density was determined and graphed as previously reported.^36 Trypanosomes were quantified using a Z2 Coulter Counter, and values of EC50 were determined after 3-4 days of treatment by the interpolation method of Huber and Koella.^37

[3] = system: T. b. brucei procyclic forms; assay: Growth of axenic cultures of T. b. brucei procyclic forms (PCFs); format: cell-based, Trypanosoma brucei brucei; conditions: axenic culture; read-out: EC50 T. b. brucei PCF
[4] = Ki* Cruzain, obtained >10 minutes following initiation of reaction by addition of enzyme, pH 7.5
[5] = apparent initial inhibition constant, 25° C., pH 7.5, read-out: Ki
[6] = apparent tight-binding inhibition constant, 25° C., pH 7.5, read-out: Ki*
[7] = conversion of EI* back to EI, from kobs replot or recovery after preincubation and dilution
[8] = 10% DMSO, read-out: Ki* Human Cathepsin L
[9] = 10% DMSO, read-out: Ki* Human Cathepsin B
[10] = obtained >10 minutes following initiation of reaction by addition of enzyme, pH 7.5, read-out: Ki* Cruzain
[11] = read-out: T. cruzi axenic culture EC50, epimastigotes
[12] = read-out: EC50 T. b. brucei BSF, axenic culture

Chain of human cathepsin S (P25774 115-331): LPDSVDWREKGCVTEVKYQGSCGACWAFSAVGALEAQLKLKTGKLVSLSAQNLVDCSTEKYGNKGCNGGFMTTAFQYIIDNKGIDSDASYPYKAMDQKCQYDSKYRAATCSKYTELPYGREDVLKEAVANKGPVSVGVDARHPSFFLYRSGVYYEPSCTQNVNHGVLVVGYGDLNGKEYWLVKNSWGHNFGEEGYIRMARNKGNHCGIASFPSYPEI
Chain of cruzain (P25779 123-467 limits assumed): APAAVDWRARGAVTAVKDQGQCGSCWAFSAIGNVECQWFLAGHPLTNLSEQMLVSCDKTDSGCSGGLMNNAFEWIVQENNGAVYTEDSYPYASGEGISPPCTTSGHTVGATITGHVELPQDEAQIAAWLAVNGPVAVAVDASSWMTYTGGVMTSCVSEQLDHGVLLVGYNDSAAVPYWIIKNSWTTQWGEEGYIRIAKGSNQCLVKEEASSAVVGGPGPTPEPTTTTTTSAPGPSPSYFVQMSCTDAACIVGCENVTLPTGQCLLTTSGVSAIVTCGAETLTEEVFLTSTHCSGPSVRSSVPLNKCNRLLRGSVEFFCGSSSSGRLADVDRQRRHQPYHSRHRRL
Chain of human cathepsin L (P07711 114-333): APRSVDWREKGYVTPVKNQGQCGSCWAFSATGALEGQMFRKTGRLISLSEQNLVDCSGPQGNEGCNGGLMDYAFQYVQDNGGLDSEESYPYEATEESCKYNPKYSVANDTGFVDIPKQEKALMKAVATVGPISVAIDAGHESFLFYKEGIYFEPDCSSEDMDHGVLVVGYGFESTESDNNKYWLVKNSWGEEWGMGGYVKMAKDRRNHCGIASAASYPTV

Compound | Ki (cruzain; [4]) [µM] | Ki (cruzain; [5]) [µM] | Ki (cruzain; [6]) [µM] | k4 (cruzain; [7]) | Ki (human cathepsin L; [8]) [µM] | Ki (human cathepsin B; [9]) [µM] | Ki (human cathepsin S) [µM] | Ki (cruzain; [10]) [µM] | EC50 [3] | EC50 [1, 11] | EC50 [2, 12] [µM] | ratio of Ki* of SMAI to Ki* of its free aldehyde (cruzain) | Ki (human cathepsin L; read-out: Ki* hCatL) [µM] | Ki (human cathepsin B; read-out: Ki* hCatB) [µM] | also measured
O=C(N[C@@H](Cc1ccccc1)C(=O)N[C@H](/C=C/c1ccccn1)Cc1ccccc1)OCc1ccccc1 [Compound 11, Benzyl ((S)-1-Oxo-3-phenyl-1-(((S,E)-1-phenyl-4-(pyridin-2-yl)-but-3-en-2-yl)amino)propan-2-yl)carbamate] | 0.12 to 0.4 | 5.5 ± 0.4 | 0.31 | 0.0012 ± 0.0002 s⁻¹ | 4.3 ± 0.5 | 28 ± 4 | 1.8 ± 0.3 |  |  |  |  |  |  |  | EC50 ([1]; Trypanosoma cruzi, read-out: T. cruzi axenic culture EC50, epimastigotes): > 20 µM; T. cruzi axenic culture EC50 ([1]; epimastigotes): poorly effective
C[n+]1ccccc1/C=C/[C@H](Cc1ccccc1)NC(=O)[C@H](Cc1ccccc1)NC(=O)OCc1ccccc1.[I-] [Compound 12, 2-((S,E)-3-((S)-2-(((Benzyloxy)carbonyl)amino)-3-phenylpropanamido)-4-phenylbut-1-en-1-yl)-1-methylpyridin-1-ium Iodide] | 0.12 to 0.4 | 3.8 ± 0.4 | 0.28 ± 0.08 |  | 0.7 ± 0.04 | 19 ± 4 | 0.87 ± 0.07 |  |  |  |  |  |  |  | Ki (cruzain; Ki*, apparent tight-binding inhibition constant, 25° C., pH 7.5): 0.12 µM; EC50 ([2]; Trypanosoma brucei, read-out: EC50 T. b. brucei BSF, axenic culture): 6.6 ± 0.6 µM
C[n+]1ccccc1/C=C/[C@H](CCc1ccccc1)NC(=O)[C@H](Cc1ccccc1)NC(=O)OCc1ccccc1 [Compound 15, 2-((S,E)-3-((S)-2-(((Benzyloxy)carbonyl)amino)-3-phenylpropanamido)-5-phenylpent-1-en-1-yl)-1-methylpyridin-1-ium] |  | 0.76 ± 0.04 | 0.126 | ≈ 0 s^−1 | 0.88 ± 0.06 | 37 ± 6 | 0.32 ± 0.04 | 0.12 to 0.4 | 5 to 15 µM and 5.9 µM | 2 to 20 µM and 2.1 µM | 2.8 ± 0.1 |  |  |  | Ki (cruzain; calculated from global fitting to eq 6, read-out: Ki*): 0.6 ± 0.2 µM; k3 (cruzain; fitting to eq 4): 0.004 ± 0.001 s⁻¹; k3 (cruzain; global fitting to eq 6): 0.0012 ± 0.0004 s⁻¹; k4 (cruzain; global fitting to eq 6): 0.00019 ± 0.00005 s⁻¹; Ki (cruzain; global fitting to eq 6, read-out: Ki): 4.3 ± 0.1 µM; Ki lower than the values with the three human cathepsins (cruzain; pH 5.5): over 10 fold; Ki (cruzain; pH 5.5, 25° C., 10% DMSO, read-out: Ki* Cruzain): 0.088 ± 0.002 µM; Ki (cruzain; pH 5.5, read-out: Ki* Cruzain): 0.088 µM; Ki (cruzain; replot of kobs vs inhibitor, fitting to eq 4, read-out: Ki): 2 ± 0.9 µM
O=C(N[C@@H](Cc1ccccc1)C(=O)N[C@H]1Cc2ccccc2OC1O)OCc1ccccc1 (some centres unmarked) [Compound 30] |  |  |  |  |  |  |  | 0.049 | 17 µM | 2 to 20 µM | 6.8 ± 1.1 | 110 | 0.028 ± 0.0009 | 4.5 ± 0.1 | selectivity for cruzain vs human cathepsin L and S (human cathepsin L): more than 10 fold
CN1CCN(C(=O)NC(Cc2ccccc2)C(=O)NC2Cc3ccccc3OC2O)CC1 (centres unmarked) [Compound 36] |  |  |  | (1.8±0.7)×10^−4 s^−1 |  |  |  | 0.047 | 4 µM | 0.54 µM | 0.6 | 94 | 0.02 ± 0.0009 | 1.27 ± 0.07 | residence time τ (cruzain; preincubation, dilution, recovery of cruzain activity): 26 min
